Eight compounds from ChEMBL document CHEMBL3608278 (J Med Chem, 2015) can be followed below.

By IC50 is commonly meant the concentration at which inhibition is half-maximal. A higher IC50 goes with a need for much substance.

Bridge positions count the residues as written; N and C are the ends. Square brackets hold non-standard residues; d marks the D form. Peptide text beside a SMILES is read from it. 1Nal = N[C@@H](Cc1cccc2ccccc12)C(=O)O Where only a bound is given, the exact number is not on record here.

Assay [1] addresses T1, Potassium voltage-gated channel subfamily A member 3 (Homo sapiens, UniProt P22001). It is filed as cell-based, CHO-K1.
Assay [2] concerns the target T1, Potassium voltage-gated channel subfamily A member 3. As to the kind of experiment: cell-based. Also noted: species or system Blood.
Assay [3] shares this target. Set-up: species or system Blood.

T1 sequence (P22001 whole entry): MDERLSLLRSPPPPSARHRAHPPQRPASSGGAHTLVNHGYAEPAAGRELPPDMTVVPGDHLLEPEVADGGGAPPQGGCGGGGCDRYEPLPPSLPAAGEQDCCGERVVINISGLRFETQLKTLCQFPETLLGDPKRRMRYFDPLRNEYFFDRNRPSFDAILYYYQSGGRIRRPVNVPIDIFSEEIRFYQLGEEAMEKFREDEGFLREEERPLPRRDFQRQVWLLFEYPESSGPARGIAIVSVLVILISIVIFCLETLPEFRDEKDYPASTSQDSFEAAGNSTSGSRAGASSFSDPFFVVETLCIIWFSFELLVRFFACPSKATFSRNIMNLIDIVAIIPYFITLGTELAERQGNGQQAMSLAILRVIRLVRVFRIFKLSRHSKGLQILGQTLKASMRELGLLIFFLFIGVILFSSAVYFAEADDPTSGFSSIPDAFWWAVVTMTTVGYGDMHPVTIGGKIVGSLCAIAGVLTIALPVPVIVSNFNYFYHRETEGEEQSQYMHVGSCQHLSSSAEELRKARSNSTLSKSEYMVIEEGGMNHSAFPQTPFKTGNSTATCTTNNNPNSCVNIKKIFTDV

Regarding `CC[C@H](C)[C@@H]1NC(=O)[C@@H](NC(=O)[C@H](CO)NC(=O)[C@@H](N)CCCNC(=N)N)CSSC[C@@H](C(=O)O)NC(=O)[C@H]([C@@H](C)O)NC(=O)CNC(=O)[C@@H]2CSSC[C@@H]3NC(=O)[C@H](CCC(N)=O)NC(=O)[C@H](Cc4ccccc4)NC(=O)[C@H](C)NC(=O)[C@H]([C@@H](C)O)NC(=O)[C@H](CSSC[C@H](NC(=O)[C@H](Cc4ccccc4)NC(=O)[C@H](CO)NC(=O)[C@H](CC(C)C)NC(=O)[C@H](CCCNC(=N)N)NC(=O)[C@H](C)NC(=O)[C@H](CCCCN)NC(=O)[C@H](CCSC)NC(=O)[C@H](CO)NC(=O)[C@H](Cc4cnc[nH]4)NC(=O)[C@H](CCCCN)NC3=O)C(=O)N[C@@H](CCCNC(=N)N)C(=O)N[C@@H](CCCCN)C(=O)N[C@@H]([C@@H](C)O)C(=O)N2)NC(=O)[C@H](CCCNC(=N)N)NC(=O)[C@H](CO)NC(=O)[C@H](CCCCN)NC(=O)[C@@H]2CCCN2C(=O)[C@H]([C@@H](C)CC)NC(=O)[C@H]([C@@H](C)O)NC(=O)[C@H](CC(=O)O)NC1=O`, the figures for the IC50 in assay [1], in assay [2] and in assay [3] were 0.261 nM, 3.09 nM and 5.67 nM, respectively.

With `CC[C@H](C)[C@@H]1NC(=O)[C@@H](NC(=O)[C@H](CO)NC(=O)[C@@H](N)CCCNC(=N)N)CSSC[C@@H](C(=O)O)NC(=O)[C@H]([C@@H](C)O)NC(=O)CNC(=O)[C@@H]2CSSC[C@@H]3NC(=O)[C@H](CCC(N)=O)NC(=O)[C@H](Cc4ccccc4)NC(=O)[C@H](C)NC(=O)[C@H]([C@@H](C)O)NC(=O)[C@H](CSSC[C@H](NC(=O)[C@H](CCC(=O)O)NC(=O)[C@H](CO)NC(=O)[C@H](CC(C)C)NC(=O)[C@H](CCCNC(=N)N)NC(=O)[C@H](Cc4ccc(O)cc4)NC(=O)[C@H](CCCCN)NC(=O)[C@H](CCSC)NC(=O)[C@H](CO)NC(=O)[C@H](Cc4cnc[nH]4)NC(=O)[C@H](CCCCN)NC3=O)C(=O)N[C@@H](CCCNC(=N)N)C(=O)N[C@@H](CCCCN)C(=O)N[C@@H]([C@@H](C)O)C(=O)N2)NC(=O)[C@H](CCCNC(=N)N)NC(=O)[C@H](CO)NC(=O)[C@H](CCCCN)NC(=O)[C@@H]2CCCN2C(=O)[C@H]([C@@H](C)CC)NC(=O)[C@H]([C@@H](C)O)NC(=O)[C@H](CC(=O)O)NC1=O`, the IC50 in assay [1] was above 3.33 nM; in assay [2] it was 8.16 nM; in assay [3], 34 nM.

As for `CC[C@H](C)[C@@H]1NC(=O)[C@@H](NC(=O)[C@H](CO)NC(=O)[C@@H](N)CCCNC(=N)N)CSSC[C@@H](C(=O)O)NC(=O)[C@H]([C@@H](C)O)NC(=O)CNC(=O)[C@@H]2CSSC[C@@H]3NC(=O)[C@H](CCC(N)=O)NC(=O)[C@H](Cc4ccccc4)NC(=O)[C@H](C)NC(=O)[C@H]([C@@H](C)O)NC(=O)[C@H](CSSC[C@H](NC(=O)[C@H](Cc4ccccc4)NC(=O)[C@H](CO)NC(=O)[C@H](CC(C)C)NC(=O)[C@H](CCCNC(=N)N)NC(=O)[C@H](Cc4ccc(O)cc4)NC(=O)[C@H](CCCCN)NC(=O)[C@H](CCSC)NC(=O)[C@H](CCCCN)NC(=O)[C@H](Cc4cnc[nH]4)NC(=O)[C@H](CCCCN)NC3=O)C(=O)N[C@@H](CCCNC(=N)N)C(=O)N[C@@H](CCCCN)C(=O)N[C@@H]([C@@H](C)O)C(=O)N2)NC(=O)[C@H](CCCNC(=N)N)NC(=O)[C@H](CO)NC(=O)[C@H](CCCCN)NC(=O)[C@@H]2CCCN2C(=O)[C@H]([C@@H](C)CC)NC(=O)[C@H]([C@@H](C)O)NC(=O)[C@H](CC(=O)O)NC1=O`, the figures for the IC50 in assay [1], in assay [2] and in assay [3] were 0.193 nM, 0.108 nM and 0.193 nM, respectively.

Consider `CC[C@H](C)[C@@H]1NC(=O)[C@@H](NC(=O)[C@H](CO)NC(=O)[C@@H](N)CCCNC(=N)N)CSSC[C@@H](C(=O)O)NC(=O)[C@H]([C@@H](C)O)NC(=O)CNC(=O)[C@@H]2CSSC[C@@H]3NC(=O)[C@H](CCC(N)=O)NC(=O)[C@H](Cc4ccccc4)NC(=O)[C@H](C)NC(=O)[C@H]([C@@H](C)O)NC(=O)[C@H](CSSC[C@H](NC(=O)[C@H](CCCCN)NC(=O)[C@H](CO)NC(=O)[C@H](CC(C)C)NC(=O)[C@H](CCCNC(=N)N)NC(=O)[C@H](Cc4ccc(O)cc4)NC(=O)[C@H](CCCCN)NC(=O)[C@H](CCSC)NC(=O)[C@H](CO)NC(=O)[C@H](Cc4cnc[nH]4)NC(=O)[C@H](CCCCN)NC3=O)C(=O)N[C@@H](CCCNC(=N)N)C(=O)N[C@@H](CCCCN)C(=O)N[C@@H]([C@@H](C)O)C(=O)N2)NC(=O)[C@H](CCCNC(=N)N)NC(=O)[C@H](CO)NC(=O)[C@H](CCCCN)NC(=O)[C@@H]2CCCN2C(=O)[C@H]([C@@H](C)CC)NC(=O)[C@H]([C@@H](C)O)NC(=O)[C@H](CC(=O)O)NC1=O`, for which the results for the IC50 in assay [1], in assay [2] and in assay [3] were 0.985 nM, 3.49 nM and 11.8 nM, respectively.

As for `CC[C@H](C)[C@@H]1NC(=O)[C@@H](NC(=O)[C@H](CO)NC(=O)[C@@H](N)CCCNC(=N)N)CSSC[C@@H](C(=O)O)NC(=O)[C@H]([C@@H](C)O)NC(=O)CNC(=O)[C@@H]2CSSC[C@@H]3NC(=O)[C@H](CCC(N)=O)NC(=O)[C@H](Cc4ccccc4)NC(=O)[C@H](C)NC(=O)[C@H]([C@@H](C)O)NC(=O)[C@H](CSSC[C@H](NC(=O)[C@H](Cc4ccccc4)NC(=O)[C@H](CO)NC(=O)[C@H](CC(C)C)NC(=O)[C@H](CCCNC(=N)N)NC(=O)[C@H](Cc4ccc(O)cc4)NC(=O)[C@H](CCCCN)NC(=O)[C@H](CCSC)NC(=O)[C@H](CO)NC(=O)[C@H](Cc4cnc[nH]4)NC(=O)[C@H](CCCNC(=N)N)NC3=O)C(=O)N[C@@H](CCCNC(=N)N)C(=O)N[C@@H](CCCCN)C(=O)N[C@@H]([C@@H](C)O)C(=O)N2)NC(=O)[C@H](CCCNC(=N)N)NC(=O)[C@H](CO)NC(=O)[C@H](CCCCN)NC(=O)[C@@H]2CCCN2C(=O)[C@H]([C@@H](C)CC)NC(=O)[C@H]([C@@H](C)O)NC(=O)[C@H](CC(=O)O)NC1=O`, the IC50 in assay [1] amounted to 0.104 nM; in assay [2], 0.038 nM; in assay [3], 0.056 nM.

As for `CC[C@H](C)[C@@H]1NC(=O)[C@@H](NC(=O)[C@H](CO)NC(=O)[C@@H](N)CCCNC(=N)N)CSSC[C@@H](C(=O)O)NC(=O)[C@H]([C@@H](C)O)NC(=O)CNC(=O)[C@@H]2CSSC[C@@H]3NC(=O)[C@H](CCC(N)=O)NC(=O)[C@H](Cc4ccccc4)NC(=O)[C@H](C)NC(=O)[C@H]([C@@H](C)O)NC(=O)[C@H](CSSC[C@H](NC(=O)[C@H](Cc4ccccc4)NC(=O)[C@H](CO)NC(=O)[C@H](CC(C)C)NC(=O)[C@H](CCCNC(=N)N)NC(=O)[C@H](Cc4ccc(O)cc4)NC(=O)[C@H](CCCCN)NC(=O)[C@H](CCSC)NC(=O)[C@H](CO)NC(=O)[C@H](Cc4cnc[nH]4)NC(=O)[C@H](CCCCN)NC3=O)C(=O)N[C@@H](CCCCN)C(=O)N[C@@H](CCCCN)C(=O)N[C@@H]([C@@H](C)O)C(=O)N2)NC(=O)[C@H](CCCNC(=N)N)NC(=O)[C@H](CO)NC(=O)[C@H](CCCCN)NC(=O)[C@@H]2CCCN2C(=O)[C@H]([C@@H](C)CC)NC(=O)[C@H]([C@@H](C)O)NC(=O)[C@H](CC(=O)O)NC1=O`, the IC50 worked out at 0.293 nM in assay [1], 0.041 nM in assay [2] and 0.071 nM in assay [3].

As for `CC[C@H](C)[C@@H]1NC(=O)[C@H]([C@@H](C)O)NC(=O)[C@H](CC(=O)O)NC(=O)[C@H](CCC(=O)O)NC(=O)[C@@H](NC(=O)[C@H](CO)NC(=O)[C@@H](N)CCCNC(=N)N)CSSC[C@@H](C(=O)O)NC(=O)[C@H]([C@@H](C)O)NC(=O)CNC(=O)[C@@H]2CSSC[C@@H]3NC(=O)[C@H](CCC(N)=O)NC(=O)[C@H](Cc4ccccc4)NC(=O)[C@H](C)NC(=O)[C@H]([C@@H](C)O)NC(=O)[C@H](CSSC[C@H](NC(=O)[C@H](Cc4ccccc4)NC(=O)[C@H](CO)NC(=O)[C@H](CC(C)C)NC(=O)[C@H](CCCNC(=N)N)NC(=O)[C@H](Cc4ccc(O)cc4)NC(=O)[C@H](CCCCN)NC(=O)[C@H](CCSC)NC(=O)[C@H](CO)NC(=O)[C@H](Cc4cnc[nH]4)NC(=O)[C@H](CCCCN)NC3=O)C(=O)N[C@@H](CCCNC(=N)N)C(=O)N[C@@H](CCCCN)C(=O)N[C@@H]([C@@H](C)O)C(=O)N2)NC(=O)[C@H](CCCNC(=N)N)NC(=O)[C@H](CO)NC(=O)[C@H](CCCCN)NC(=O)[C@@H]2CCCN2C1=O`, the IC50 in assay [1] was found to be 0.075 nM; in assay [2], 0.031 nM; in assay [3], 0.05 nM.

In the case of `CC[C@H](C)[C@@H]1NC(=O)[C@@H](NC(=O)[C@H](CO)NC(=O)[C@@H](N)CCCNC(=N)N)CSSC[C@@H](C(=O)O)NC(=O)[C@H]([C@@H](C)O)NC(=O)CNC(=O)[C@@H]2CSSC[C@@H]3NC(=O)[C@H](CCC(N)=O)NC(=O)[C@H](Cc4ccccc4)NC(=O)[C@H](CCC(=O)O)NC(=O)[C@H]([C@@H](C)O)NC(=O)[C@H](CSSC[C@H](NC(=O)[C@H](Cc4ccccc4)NC(=O)[C@H](CO)NC(=O)[C@H](CC(C)C)NC(=O)[C@H](CCCNC(=N)N)NC(=O)[C@H](Cc4ccc(O)cc4)NC(=O)[C@H](CCCCN)NC(=O)[C@H](CCSC)NC(=O)[C@H](CO)NC(=O)[C@H](Cc4cnc[nH]4)NC(=O)[C@H](CCCCN)NC3=O)C(=O)N[C@@H](CCCNC(=N)N)C(=O)N[C@@H](CCCCN)C(=O)N[C@@H]([C@@H](C)O)C(=O)N2)NC(=O)[C@H](CCCNC(=N)N)NC(=O)[C@H](CO)NC(=O)[C@H](CCCCN)NC(=O)[C@@H]2CCCN2C(=O)[C@H]([C@@H](C)CC)NC(=O)[C@H]([C@@H](C)O)NC(=O)[C@H](Cc2cccc3ccccc23)NC1=O` (H-RSCI[1Nal]TIPKSRCTEFQCKHSMKYRLSFCRKTCGTC-OH; disulfide 3-35, 12-28, 17-32), the values for the IC50 in assay [1], in assay [2] and in assay [3] were 0.11 nM, 0.036 nM and 0.132 nM, respectively.
